We go through 17 molecules from ChEMBL document CHEMBL1156419, “Inhibition of metalloprotease botulinum serotype A from a pseudo-peptide binding mode to a small molecule that is active in primary neurons” (J Biol Chem, 2007).

Where a SMILES comes first, the peptide text is derived from it. The star is where a group is joined. Propanoyl(2S-SH,3-Ph) = O=C([C@@H](S)Cc1ccccc1)*; X1 = O=C([C@H](S)Cc1ccccc1)*

Sequence of Botulinum neurotoxin type A (P0DPI1 2-448 limits assumed): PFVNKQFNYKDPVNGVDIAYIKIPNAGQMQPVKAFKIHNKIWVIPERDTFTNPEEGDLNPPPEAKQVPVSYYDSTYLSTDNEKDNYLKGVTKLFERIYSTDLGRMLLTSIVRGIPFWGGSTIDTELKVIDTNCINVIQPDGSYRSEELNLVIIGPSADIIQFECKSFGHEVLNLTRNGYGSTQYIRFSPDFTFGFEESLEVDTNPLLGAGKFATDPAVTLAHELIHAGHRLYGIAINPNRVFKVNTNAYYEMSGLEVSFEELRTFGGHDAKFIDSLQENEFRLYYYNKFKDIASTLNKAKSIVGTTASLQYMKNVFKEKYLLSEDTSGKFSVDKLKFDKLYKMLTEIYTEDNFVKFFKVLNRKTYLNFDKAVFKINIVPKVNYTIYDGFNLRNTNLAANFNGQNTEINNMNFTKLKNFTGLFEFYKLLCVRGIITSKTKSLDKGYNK

The first data set concerns the target Botulinum neurotoxin type A (Clostridium botulinum (strain Hall / ATCC 3502 / NCTC 13319 / Type A), UniProt P0DPI1). Nature of the data set: Inhibition of BoNT/A light chain metalloprotease activity.
For `N=C(N)c1ccc2oc(/C=C/C=C/C=C/c3cc4cc(C(=N)N)ccc4o3)cc2c1`, the Ki (in general, the dissociation constant of the complex between target and ligand, obtained from inhibition or displacement) amounted to 6 µM. Same read-out and setting: then `N=C(N)N/N=C/c1ccc(-c2cc3ccc(/C=N/NC(=N)N)cc3s2)cc1`, with 3 µM; and `C(=C\c1cc2ccc(C3=NCCN3)cc2[nH]1)/c1ccc2cc(C3=NCCN3)[nH]c2c1`, with 10 µM. In turn, `NC(N)=NCCC[C@H](NC(=O)[C@@H](S)Cc1ccccc1)C(=O)O` gave a Ki of 60 µM. On the same count and under the same terms, then `C[C@H](NC(=O)[C@H](CCCNC(=N)N)NC(=O)[C@@H](S)Cc1ccccc1)C(=O)O`, with 60 µM. In the case of `C[C@H](NC(=O)[C@H](CCCNC(=N)N)NC(=O)[C@@H](S)Cc1ccccc1)C(=O)N[C@H](C(=O)O)[C@@H](C)O`, the inhibition constant (Ki) was found to be 30 µM.

Turning to `CSCC[C@H](NC(=O)[C@H](CCCCN)NC(=O)[C@@H](NC(=O)[C@H](C)NC(=O)[C@H](CCCNC(=N)N)NC(=O)[C@@H](N)CS)[C@@H](C)O)C(=O)N[C@@H](CC(C)C)C(=O)O` (H-CRATKML-OH), the affinity, expressed as Ki, was 2 µM. Still for that read-out and setting: then `CSCC[C@H](NC(=O)[C@H](CCCCN)NC(=O)[C@@H](NC(=O)[C@H](C)NC(=O)[C@H](CCCNC(=N)N)NC(=O)[C@H](S)Cc1ccccc1)[C@@H](C)O)C(=O)N[C@@H](CC(C)C)C(=O)O` (X1-RATKML-OH), with 8 µM; and `CSCC[C@H](NC(=O)[C@H](CCCCN)NC(=O)[C@@H](NC(=O)[C@H](C)NC(=O)[C@H](CCCCN)NC(=O)[C@@H](S)Cc1ccccc1)[C@@H](C)O)C(=O)N[C@@H](CC(C)C)C(=O)O` ({Propanoyl(2S-SH,3-Ph)}-KATKML-OH), with > 300 µM; and `CSCC[C@H](NC(=O)[C@H](CCCCN)NC(=O)[C@H](C)NC(=O)[C@H](C)NC(=O)[C@H](CCCNC(=N)N)NC(=O)[C@@H](S)Cc1ccccc1)C(=O)N[C@@H](CC(C)C)C(=O)O` ({Propanoyl(2S-SH,3-Ph)}-RAAKML-OH), with 0.7 µM.

The molecule `CSCC[C@H](NC(=O)[C@H](C)NC(=O)[C@@H](NC(=O)[C@H](C)NC(=O)[C@H](CCCN=C(N)N)NC(=O)[C@@H](S)Cc1ccccc1)[C@@H](C)O)C(=O)N[C@@H](CC(C)C)C(=O)O` ({Propanoyl(2S-SH,3-Ph)}-RATAML-OH) came in with a Ki of 3 µM. Same read-out and setting: with `C[C@H](NC(=O)[C@H](CCCNC(=N)N)NC(=O)[C@@H](S)Cc1ccccc1)C(=O)N[C@H](C(=O)N[C@@H](CCCCN)C(=O)O)[C@@H](C)O` ({Propanoyl(2S-SH,3-Ph)}-RATK-OH) the figure was 4 µM; with `CC(C)C[C@H](NC(=O)[C@H](C)NC(=O)[C@H](CCCCN)NC(=O)[C@@H](NC(=O)[C@H](C)NC(=O)[C@H](CCCNC(=N)N)NC(=O)[C@@H](S)Cc1ccccc1)[C@@H](C)O)C(=O)O` ({Propanoyl(2S-SH,3-Ph)}-RATKAL-OH), 0.7 µM; with `CSCC[C@H](NC(=O)[C@H](CCCCN)NC(=O)[C@@H](NC(=O)[C@H](C)NC(=O)[C@H](CCCN=C(N)N)NC(=O)[C@@H](S)Cc1ccccc1)[C@@H](C)O)C(=O)O` ({Propanoyl(2S-SH,3-Ph)}-RATKM-OH), 0.4 µM.

On to `CSCC[C@H](NC(=O)[C@H](CCCCN)NC(=O)[C@@H](NC(=O)[C@H](C)NC(=O)[C@H](CCCNC(=N)N)NC(=O)[C@@H](S)Cc1ccccc1)[C@@H](C)O)C(=O)N[C@@H](CC(C)C)C(=O)O` ({Propanoyl(2S-SH,3-Ph)}-RATKML-OH), for which the Ki came out at 0.3 µM. On to `CSCC[C@H](NC(=O)[C@H](CCCCN)NC(=O)[C@@H](NC(=O)[C@H](C)NC(=O)[C@H](CCCNC(=N)N)NC(=O)[C@@H](S)Cc1ccccc1)[C@@H](C)O)C(=O)N[C@@H](CC(C)C)C(=O)NCC(=O)N[C@@H](CO)C(=O)NCC(=O)O` ({Propanoyl(2S-SH,3-Ph)}-RATKMLGSG-OH), for which the Ki is 0.3 µM.

As for `CSCC[C@H](NC(=O)[C@H](CCCCN)NC(=O)[C@@H](NC(=O)[C@@H](NC(=O)[C@H](CCCN=C(N)N)NC(=O)[C@@H](S)Cc1ccccc1)C(C)C)[C@@H](C)O)C(=O)N[C@@H](CC(C)C)C(=O)O` ({Propanoyl(2S-SH,3-Ph)}-RVTKML-OH), the affinity corresponds to a Ki of 2 µM.

Tested on in another data set: not listed separately
Nature of the data set: Cytotoxicity in embryonic chicken spinal neurons at 1 to 5 uM after 3.5 hrs. More on the design: species or system Gallus gallus.
Regarding `N=C(N)c1ccc2oc(/C=C/C=C/C=C/c3cc4cc(C(=N)N)ccc4o3)cc2c1`, the Activity entry is “Toxic”. Take `N=C(N)N/N=C/c1ccc(-c2cc3ccc(/C=N/NC(=N)N)cc3s2)cc1`: the Activity entry is “Toxic”.
